This is an account of results in article PMC12410356 (International Journal for Parasitology: Drugs and Drug …, 2025).

For data set [1], the system named is E. multilocularis metacestode vesicles. The note with it: PGI release after five days, cited from earlier work.
Data set [2] has as its system Reuber rat hepatoma (RH) cells. The note with it: cited from earlier work.
For data set [3], the system named is E. multilocularis GL cells. The data set is described as follows: Seahorse mito cell stress test, oxygen consumption rate. The note with it: titration in GL cells. Type of data set: cell-based, Echinococcus multilocularis. On the procedure:
To measure mitochondrial respiration in E. multilocularis GL cells, Seahorse “mito cell stress test” was performed according to the manual for Seahorse XFp Extracellular Flux Analyzer (Agilent Technologies, Basel, Switzerland) with some adaptations ([Gu et al., 2021]; [Rufener et al., 2018]). Seahorse XFp 8-well plates were hydrated and incubated together with Seahorse XF calibrant solution at 37 °C in a non-CO2 incubator overnight the day before the actual experiment. […] Oligomycin was used at a final concentration of 1.5 μM. […] The experiment was repeated three times independently with two technical replicates.

The subject of data set [4] is E. multilocularis metacestode vesicles. The data set is described as follows: Phosphoglucose isomerase (PGI) release assay (damage-marker release) on metacestode vesicles. Type of data set: cell-based, Echinococcus multilocularis. To be noted: 10 μM; for PGI d5 (relative PGI release): 5 days; for PGI d12 (relative PGI release): 12 days.
Data set [5] shares this test system. Description: Metacestode vesicle viability assay (ATP, CellTiter-Glo). It counts as cell-based, Echinococcus multilocularis. The note with it: Echinococcus multilocularis, 288 h, 10 μM, 12 days, read-out: Viability d12 (relative viability). The protocol: Viability was assessed after 12 days using the same metacestode vesicles as for the PGI release assay. Triton X-100 was added to each well to a final concentration of 0.1 %. Subsequently the metacestode vesicles were broken mechanically and 50 μL of the supernatant was mixed with 50 μL of CellTiter-Glo® buffer (Promega, Dübendorf, Switzerland). Measurements were performed on a HIDEX Sense microplate reader.
In general terms: In ATP-based viability assays light output follows the ATP content of the culture.

The subject of data set [6] is E. multilocularis GL cells. Description: Germinal layer cell viability assay (CellTiter-Glo). To be noted: for effect on GL cell viability (in words): 80 to 0.31 μM, 5 days; for IC50: Echinococcus multilocularis, 120 h, 5 days incubation, microaerobic, mean ± SD of three independent experiments. Type of data set: cell-based, Echinococcus multilocularis. The protocol:
The isolation of GL cells was conducted according to ([Kaethner et al., 2023]). Briefly, conditioned DMEM (cDMEM) was prepared prior to isolation. For the preparation of cDMEM, 1 × 10^6 RH cells and 10 × 10^6 RH cells incubated in DMEM supplemented with 10 % FBS, penicillin (100 U/mL), streptomycin (100 μg/mL) and tetracycline (5 μg/mL) for six or four days, respectively, at 37 °C under a humid, 5 % CO2 atmosphere. The supernatant of each was mixed 1:1 and sterile filtrated, resulting in cDMEM. Metacestode vesicles of at least 6 months of age were washed with PBS, incubated in distilled H2O for 2.5 min and subsequently mechanically disrupted. The resulting pellet was resuspended in 7 vol of pre-warmed 0.05 % Trypsin/0.02 % EDTA and incubated at 37 °C for 30 min. GL cells were extracted from the laminated layer by vigorous shaking followed by filtration through a 30 μm mesh (Sefar AG, Heiden, Switzerland) and separated from calcareous corpuscles by short centrifugation at 50×g for 30 s at RT. The isolated cells were centrifuged for 10 min at 600×g and RT and the pellet was resuspended in cDMEM. The cell suspension was diluted 1:100 in PBS to measure the OD600. An OD600 value of 0.1 of this dilution was defined as one arbitrary unit (AU) per μL of the undiluted cell suspension corresponding to 0.97 ± 0.11 μg of total protein for the GL cells as measured via Pierce™ bicinchoninic acid (BCA) Protein Assay Kit according to the manufacturer's protocol (Fisher Scientific AG, Reinach, Switzerland). 1′000 AU per 5 mL of cDMEM were cultured at 37 °C overnight under a humid nitrogen atmosphere. The next day, 2′000 AU of GL cells were combined and further cultured for 3 h at 37 °C under a humid nitrogen atmosphere before they were used for further experiments.
To assess effects of compounds on the cell viability of isolated E. multilocularis GL cells, the protocol was applied as previously described ([Kaethner et al., 2023]). In short, 15 AU of GL cells were distributed into each well of a black 384-well plate. Compounds dissolved in DMSO (alexidine, carbendazim, ESI-09, MMV1581545 and oxfendazole) were added to final concentrations ranging from 80 to 0.31 μM (1:2 serial dilution) and the cells were cultured for 5 days at 37 °C under a humid, microaerobic atmosphere (85 % N2, 10 % CO2, 5 % O2). DMSO with the respective concentration was used as a solvent control. Viability was measured using the CellTiter-Glo® kit. Luminescence was measured using a HIDEX Sense microplate reader. Measurements were done in quadruplicates and represented as relative viability of the DMSO controls. IC50 values were calculated in R applying the five parameter logistic model for three independent experiments ([Ritler et al., 2020]).

For data set [7], the system named is Reuber rat hepatoma (RH) cells. The data set is described as follows: Mammalian cell toxicity, resazurin assay. Type of data set: cell-based. To be noted: for toxicity against mammalian cell line (in words): RH cells counter-screen; for IC50: 5 days incubation, mean ± SD. The protocol: Mammalian cell toxicity on RH cells was measured as described in [Rufener et al. (2018)] with few alterations. Briefly, confluent (50′000 cells/well) and pre-confluent (5′000 cells/well) were seeded into 96-well plates in DMEM supplemented with 10 % FBS, penicillin (100 U/mL), streptomycin (100 μg/mL) and tetracycline (5 μg/mL) and incubated at 37 °C under a humid, 5 % CO2 atmosphere for 24 h and 5 h respectively. Alexidine, ESI-09 and MMV1581545 were added to final concentrations ranging from 120 to 0.49 μM (1:3 serial dilution) to each well and then cells were incubated at 37 °C under a humid, 5 % CO2 atmosphere for 5 days. To measure viability, the medium was removed, 180 μL of PBS was added to the cells and resazurin was added to each well to a final concentration of 10 mg/L. The cells were then allowed to process the resazurin at RT for 1 h. Fluorescence was measured on a HIDEX Sense microplate reader. Measurements were performed in triplicates and IC50 values were calculated in R using the three parameter Weibull type 1 model for three independent experiments ([Ritler et al., 2020]).

The test system of data set [8] is E. multilocularis GL cells. The arrangement: method as in Stadelmann et al., 2016. To be noted: ref Stadelmann et al., 2016; cited from earlier work.
For a further data set, the system named is HUVEC cell line. Set-up: method as in Mamouei et al., 2018. To be noted: at 15 μM; ref Mamouei et al., 2018; cited from earlier work.
Setting [9] is: confluent, ref Rufener et al., 2018, read-out: IC50 confluent RH cells.
[10] abbreviates: pre-confluent, ref Rufener et al., 2018, read-out: IC50 pre-confluent RH cells.
The mark [11] stands for this setting: confirmation screen, triplicates, mean.
[12] abbreviates: overview screen, singlets, relative to 0.1 % Triton X-100, DMSO subtracted.
[13] abbreviates: overview screen, singlets, relative to DMSO control.
Where [14] appears, read: Rattus norvegicus, 120 h, confluent, read-out: IC50 confluent RH cells.
Setting [15] is: Rattus norvegicus, 120 h, pre-confluent, read-out: IC50 pre-confluent RH cells.

Like-named read-outs stand apart in the source and are kept apart here.

The term IC50 denotes the concentration that inhibits the measured activity by half. Take `CC(C)(C)[C@H]1CC[C@H](CC2=C(O)C(=O)c3ccccc3C2=O)CC1` [buparvaquone]: the IC50 in data set [1] (ref Rufener et al., 2018) is 2.87 ± 1.45 µM; in data set [2] (setting [9]) it was 17.4 ± 2.09 µM; in [2] (setting [10]) it was 8.47 ± 3.89 µM.
On to `N#CC(C#N)=NNc1ccc(OC(F)(F)F)cc1` [FCCP], for which, in data set [3], the “optimal (maximal) uncoupling concentration” value turned out to be 0.4 µM.
What is called viability is a per cent measure of how many cells are alive, often set against a control. Turning to `Cc1cc(O)c2c(c1)C(=O)c1c(I)c(C)c(I)c(O)c1C2=O` [MMV1581545], the results for the “PGI d5 (relative PGI release)” value in [4] (setting [11]) and in data set [4] (setting [12]) were 10.14% and 18.0887%, respectively. Besides, the “PGI d12 (relative PGI release)” value is given as 30.09% in [4] (setting [11]) and 27.8991% in [4] (setting [12]). Further, the figures for the viability at 10 µM in data set [5] (setting [11]) and in [5] (setting [13]) were 19.1% and 16.4%, respectively. Moreover, the “effect on GL cell viability (in words)” value in [6] was “highly effective”. Also, the IC50 worked out at 7.89 ± 1.43 µM in data set [6]; 21.3 ± 4.39 µM in data set [7] (setting [14]); 13.8 ± 1.09 µM in [7] (setting [15]); 14.7 ± 2.09 µM in data set [7] (pre-confluent, read-out: IC50 pre-confluent RH cells). Further, the “toxicity against mammalian cell line (in words)” value in data set [7] is reported as “moderate toxicity”.
Turning to `O=C(Nc1cccc(C(F)(F)F)c1)c1cc(Cl)ccc1O` [MMV665807], the IC50 in data set [1] (ref Stadelmann et al., 2016) is 1.2 ± 1.6 µM; in [8], 0.6 ± 0.37 µM; in data set [2] (confluent, ref Stadelmann et al., 2016, read-out: IC50 confluent RH cells) it was 20.5 ± 0.13 µM; in data set [2] (pre-confluent, ref Stadelmann et al., 2016, read-out: IC50 pre-confluent RH cells) it was 4.8 ± 0.59 µM.
For `Cc1[nH]c2cc(F)cc(F)c2c(=O)c1-c1ccc(Oc2ccc(OC(F)(F)F)cc2)cc1` [ELQ-400], the IC50 in data set [1] (ref Rufener et al., 2018) was 0.02 ± 0.01 µM; in [2] (setting [9]) it was 2.07 ± 1.67 µM; in data set [2] (setting [10]), 0.25 ± 0.11 µM.
As for `CCCCC(CC)CNC(=N)NC(=N)NCCCCCCNC(=N)NC(=N)NCC(CC)CCCC` (stereo not drawn) [alexidine, reference compound], the “PGI d5 (relative PGI release)” value in data set [4] (setting [11]) is recorded as 32.36%; in data set [4] (setting [12]) it was 68.8052%. Also, the “PGI d12 (relative PGI release)” value is given as 76.1 ± 3.2% in [4] (setting [11]); 76.16% in data set [4] (confirmation screen, triplicates, mean, listed as MMV396785); 92.491% in [4] (setting [12]). In addition, the figures for the viability at 10 µM in data set [5] (setting [11]) and in data set [5] (setting [13]) were 34.4 ± 0.9% and 4.93%, respectively. In data set [6], the “effect on GL cell viability (in words)” value is “highly effective”. The IC50 in data set [6] was 10.7 ± 1.13 µM; in [7] (setting [14]) it was 5.97 ± 4.89 µM; in [7] (setting [15]), 2.8 ± 1.33 µM. The “toxicity against mammalian cell line (in words)” value in data set [7] was “highly toxic”. The “toxicity in the HUVEC cell line (in words)” value in the data set on HUVEC cell line is recorded as “severe toxicity”.
